# Patent US20040067952A1, “Method and composition for treatment of cancer” (priority 2001, published 2004)
# Read-outs that look alike come from different tables or passages of the source.
# Assays:
# HUH-7 = assay: [3H]Thymidine incorporation assay, HUH-7; assay type: cell-based; conditions: Homo sapiens, 5 days, read-out: % inhibition of [3H] thymidine incorporation (compared to control)
# Protocol: (§1) Method: [^3H]Thymidine incorporation assay was employed to study the effect of clofazimine on cell proliferation. Here, adherent cells (5/000-10/000) were plated into 24-well Corning tissue culture dishes and exposed to culture medium (MEM 5% FBS) containing the vehicle or different concentrations of clofazimine (10^-9 to 10^-5 moles per liter). For Novikoff which is a detached rat cell line, 2000 cells were suspended in 2 ml of DMEM (5%FBS) and kept under the same condition as for attached cells. Media were replaced with fresh media on alternate days. […] The amount of radioactivity incorporated was determined using β-scintillation counter (18). Results are presented as the actual counts per minute against the concentration of the drug used in the culture media or as % inhibition (reduction in thymidine incorporation compared to controls). Treatment of different liver cancer cell lines, HUH-7, HepG2, SKHEP-1, Hep3-B (human cell lines) and Novikoff (rat cell line) with clofazimine led to dose-dependent inhibition of [3H]thymidine incorporation by these cells (Table 1 and FIG. 1). Values represent mean±s.e.m of % inhibition of [3H] thymidine incorporation (compared to control) for each cell line when treated for 5 days with different concentrations of clofazimine.
# HepG2 = assay: [3H]Thymidine incorporation assay, HepG2; assay type: cell-based; conditions: Homo sapiens, 5 days, read-out: % inhibition of [3H] thymidine incorporation (compared to control)
# Protocol: as §1
# SKHEP-1 = assay: [3H]Thymidine incorporation assay, SKHEP-1; assay type: cell-based; conditions: Homo sapiens, SK-HEP1, 5 days, read-out: % inhibition of [3H] thymidine incorporation (compared to control)
# Protocol: as §1
# Hep3-B = assay: [3H]Thymidine incorporation assay, Hep3-B; assay type: cell-based; conditions: Homo sapiens, Hep3B, Hep3-β, 5 days, read-out: % inhibition of [3H] thymidine incorporation (compared to control)
# Protocol: as §1
# Novikoff = assay: [3H]Thymidine incorporation assay, Novikoff; assay type: cell-based; conditions: Rattus norvegicus, 5 days, read-out: % inhibition of [3H] thymidine incorporation (compared to control)
# Protocol: as §1
# LOVO = assay: [3H]thymidine incorporation, LOVO colorectal cancer cells; assay type: cell-based, human; conditions: 5 day treatment
# Protocol: FIG. 8: [3H]thymidine incorporation expressed as counts per minute in LOVO cells (colorectal cancer cell line) treated in culture for 5 days with different concentrations of clofazimine.
# Method: [^3H]Thymidine incorporation assay was employed to study the effect of clofazimine on cell proliferation. Here, adherent cells (5/000-10/000) were plated into 24-well Corning tissue culture dishes and exposed to culture medium (MEM 5% FBS) containing the vehicle or different concentrations of clofazimine (10^−9 to 10^−5 moles per liter). For Novikoff which is a detached rat cell line, 2000 cells were suspended in 2 ml of DMEM (5%FBS) and kept under the same condition as for attached cells. Media were replaced with fresh media on alternate days. At the end of the treatment period (5-10 days), cell cultures were assayed for thymidine incorporation by the addition of 0.5 μCi of [3H]thymiydine to each well for the last 4 h of culture. The amount of radioactivity incorporated was determined using β-scintillation counter (18). Results are presented as the actual counts per minute against the concentration of the drug used in the culture media or as % inhibition (reduction in thymidine incorporation compared to controls). […]
# HT-29 = assay: [3H]thymidine incorporation, HT-29 colorectal cancer cells; assay type: cell-based; conditions: Homo sapiens, 120 h; HT-29, 1 μM clofazimine, 5 day treatment period; read-out: inhibition of cell proliferation
# C-170 = assay: [3H]thymidine incorporation, C-170 colorectal cancer cells; assay type: cell-based; conditions: Homo sapiens, C170, 120 h; C-170, 1 μM clofazimine, 5 day treatment period; read-out: inhibition of cell proliferation
# Protocol: Method: [^3H]Thymidine incorporation assay was employed to study the effect of clofazimine on cell proliferation. Here, adherent cells (5/000-10/000) were plated into 24-well Corning tissue culture dishes and exposed to culture medium (MEM 5% FBS) containing the vehicle or different concentrations of clofazimine (10^−9 to 10^−5 moles per liter). For Novikoff which is a detached rat cell line, 2000 cells were suspended in 2 ml of DMEM (5%FBS) and kept under the same condition as for attached cells. Media were replaced with fresh media on alternate days. At the end of the treatment period (5-10 days), cell cultures were assayed for thymidine incorporation by the addition of 0.5 μCi of [3H]thymiydine to each well for the last 4 h of culture. The amount of radioactivity incorporated was determined using β-scintillation counter (18). Results are presented as the actual counts per minute against the concentration of the drug used in the culture media or as % inhibition (reduction in thymidine incorporation compared to controls). Treatment of different liver cancer cell lines, HUH-7, HepG2, SKHEP-1, Hep3-B (human cell lines) and Novikoff (rat cell line) with clofazimine led to dose-dependent inhibition of [3H]thymidine incorporation by these cells (Table 1 and FIG. 1).
# [1] = Solubility and stability in lipiodol; assay type: physicochemical
# [2] = reference 9; cited from earlier work
# HCC = HCC patients, cited from earlier work
structure (smiles),measurement,setting,value
"CC(C)/N=c1/cc2n(-c3ccc(Cl)cc3)c3ccccc3nc-2cc1Nc1ccc(Cl)cc1 [clofazimine, 3-(4-chloroanilino)-10-(4-chlorophenyl)-2, 10-dihydro-2-(isopropylimino)-phenazine]",inhibition at 0.01 µM,"HUH-7; HUH-7, clofazimine 0.01 μM",0%
same,inhibition at 0.1 µM,"HUH-7; HUH-7, clofazimine 0.1 μM",38.3 ± 7.2%
same,inhibition at 0.5 µM,"HUH-7; HUH-7, clofazimine 0.5 μM",51.1 ± 3.4%
same,inhibition at 1 µM,"HUH-7; HUH-7, clofazimine 1.0 μM",88.9 ± 1.1%
same,inhibition at 5 µM,"HUH-7; HUH-7, clofazimine 5.0 μM",96.7 ± 0.9%
same,inhibition at 0.01 µM,"HepG2; HepG2, clofazimine 0.01 μM",21 ± 1.9%
same,inhibition at 0.1 µM,"HepG2; HepG2, clofazimine 0.1 μM",38.2 ± 2.2%
same,inhibition at 0.5 µM,"HepG2; HepG2, clofazimine 0.5 μM",52.9 ± 4.7%
same,inhibition at 1 µM,"HepG2; HepG2, clofazimine 1.0 μM",75.6 ± 2.7%
same,inhibition at 5 µM,"HepG2; HepG2, clofazimine 5.0 μM",92.4 ± 1.9%
same,inhibition at 0.01 µM,"SKHEP-1; SKHEP-1, clofazimine 0.01 μM",30.3 ± 2.9%
same,inhibition at 0.1 µM,"SKHEP-1; SKHEP-1, clofazimine 0.1 μM",62.7 ± 7.1%
same,inhibition at 0.5 µM,"SKHEP-1; SKHEP-1, clofazimine 0.5 μM",69 ± 3.2%
same,inhibition at 1 µM,"SKHEP-1; SKHEP-1, clofazimine 1.0 μM",70.9 ± 2.1%
same,inhibition at 5 µM,"SKHEP-1; SKHEP-1, clofazimine 5.0 μM",97.1 ± 1.7%
same,inhibition at 0.01 µM,Hep3-B; clofazimine 0.01 μM,28.4 ± 7.4%
same,inhibition at 0.1 µM,Hep3-B; clofazimine 0.1 μM,62.3 ± 3.1%
same,inhibition at 0.5 µM,Hep3-B; clofazimine 0.5 μM,91.6 ± 1.1%
same,inhibition at 1 µM,Hep3-B; clofazimine 1.0 μM,94.3 ± 0.07%
same,inhibition at 5 µM,Hep3-B; clofazimine 5.0 μM,95.4 ± 1.4%
same,inhibition at 0.01 µM,Novikoff; clofazimine 0.01 μM,0%
same,inhibition at 0.1 µM,Novikoff; clofazimine 0.1 μM,0%
same,inhibition at 0.5 µM,Novikoff; clofazimine 0.5 μM,11.7 ± 3.3%
same,inhibition at 1 µM,Novikoff; clofazimine 1.0 μM,18.9 ± 2.9%
same,inhibition at 5 µM,Novikoff; clofazimine 5.0 μM,42.7 ± 4.1%
same,inhibition of proliferation as measured by [3H]thymidine incorporation,LOVO,profound inhibition of proliferation
same,inhibition at 1 µM,HT-29,> 70%
same,inhibition at 1 µM,C-170,> 70%
same,solubility in lipiodol,[1],highly soluble
same,stability in lipiodol,[1],stable
same,log p (octanol/water),[2],7.4
same,objective response,"HCC; clofazimine alone, Falkson et al.",no objective response
same,objective response,"HCC; oral clofazimine, 3/30, Ruff et al.",10%
same,stabilization of the disease,"HCC; oral clofazimine, 13/30, for up to 20 months, Ruff et al.",43%
